Like-named read-outs stand apart in the source and are kept apart here.
Key:
SARS-CoV-2 3CL^pro [1] = biological target: T1, SARS-CoV-2 3CL^pro (Severe acute respiratory syndrome coronavirus 2 (2019-nCoV) (SARS-CoV-2), UniProt P0DTD1); experiment: 3CL^pro inhibitory activity test (fluorescence resonance energy transfer); type: biochemical
SARS-CoV-2 3CL^pro [2] = biological target: T1, SARS-CoV-2 3CL^pro; type: cell-based; conditions: Western Blot
[3] = HEK293E cells transfected with 3CL^pro plasmid, 24 h treatment, read-out: DC50
[4] = FRET, substrate Dabcyl-KTSAVLQSGFRKME-Edans 20 μM, enzyme 0.5 μM, read-out: IC50
[5] = HEK293E cells, 24 h, read-out: DC50 values

Row | Compound | IC50 (SARS-CoV-2 3CL^pro [1]) [nM] | DC50 (SARS-CoV-2 3CL^pro [2]; [3]) [nM] | IC50 (SARS-CoV-2 3CL^pro [1]; [4]) [nM] | IC50 (SARS-CoV-2 3CL^pro [1]; FRET, read-out: IC50 values) [nM] | DC50 (SARS-CoV-2 3CL^pro [2]; [5]) [nM]
1 | Cn1cc2cc(/N=c3\[nH]c(=O)n(Cc4cn(CCC(=O)Nc5cccc6c5CN(C5CCC(=O)NC5=O)C6=O)nn4)c(=O)n3Cc3cc(F)c(F)cc3F)c(Cl)cc2n1 (stereo not shown) [Compound 1] | 100 to 1000 | 100 to 1000 | – | – | –
2 | Cn1cc2cc(/N=c3\[nH]c(=O)n(Cc4cn(CCCCCC(=O)Nc5cccc6c5CN(C5CCC(=O)NC5=O)C6=O)nn4)c(=O)n3Cc3cc(F)c(F)cc3F)c(Cl)cc2n1 (stereo not shown) [Compound 4, (E)-6-(4-((4-((6-chloro-2-methyl-2H-indazol-5-yl)imino)-2,6-dioxy-3-(2,4,5-Trifluorobenzyl)-1,3,5-triazin-1-yl)methyl)-1H-1,2,3-triazol-1-yl)-N-(2-Preparation of (2,6-Dioxypiperidin-3-yl)-1-oxoisoquinolin-4-yl)hexanamide] | – | < 100 | < 100 | < 100 | < 100
3 | Cn1cc2cc(/N=c3\[nH]c(=O)n(Cc4cn(CCC(=O)Nc5cccc6c5C(=O)N(C5CCC(=O)NC5=O)C6=O)nn4)c(=O)n3Cc3cc(F)c(F)cc3F)c(Cl)cc2n1 (stereo not shown) [Compound 7, (E)-3-(4-((4-((6-chloro-2-methyl-2H-indazol-5-yl)imino)-2,6-dioxy-3-(2,4,5-Trifluorobenzyl)-1,3,5-triazin-1-yl)methyl)-1H-1,2,3-triazol-1-yl)-N-(2-Preparation of (2,6-dioxopiperidin-3-yl)-1,3-dioxoisoindolin-4-yl)propionamide] | 100 to 1000 | 100 to 1000 | – | – | –
4 | Cn1cc2cc(/N=c3\[nH]c(=O)n(Cc4cn(CCOCC(=O)Nc5cccc6c5CN(C5CCC(=O)NC5=O)C6=O)nn4)c(=O)n3Cc3cc(F)c(F)cc3F)c(Cl)cc2n1 (stereo not shown) [Compound 13, (E)-2-(2-(4-((4-((6-chloro-2-methyl-2H-indazol-5-yl)imino)-2,6-dioxy-3-(2,4,5-Trifluorobenzyl)-1,3,5-triazin-1-yl)methyl)-1H-1,2,3-triazol-1-yl)ethoxyyl)-N-(2-(2,6-dioxopiperidin-3-yl)-1-oxoisoquinolin-4-yl)acetamide] | 100 to 1000 | < 100 | – | – | < 100
5 | Cn1cc2cc(/N=c3\[nH]c(=O)n(Cc4cn(CCOCCOCC(=O)Nc5cccc6c5CN(C5CCC(=O)NC5=O)C6=O)nn4)c(=O)n3Cc3cc(F)c(F)cc3F)c(Cl)cc2n1 (stereo not shown) [Compound 14, (E)-2-(2-(2-(4-((4-((6-chloro-2-methyl-2H-indazol-5-yl)imino)-2,6-Dioxy-3-(2,4,5-trifluorobenzyl)-1,3,5-triazin-1-yl)methyl)-1H-1,2,3-triazol-1-yl)ethoxy)ethoxy)-N-(2-(2,6-dioxopiperidin-3-yl)-1-oxoisoindolin-4-yl)acetamide] | – | < 100 | – | – | < 100
6 | Cn1cc2cc(/N=c3\[nH]c(=O)n(Cc4cn(CCOCCOCCOCC(=O)Nc5cccc6c5CN(C5CCC(=O)NC5=O)C6=O)nn4)c(=O)n3Cc3cc(F)c(F)cc3F)c(Cl)cc2n1 (stereo not shown) [Compound 15, (E)-2-(2-(2-(2-(4-((4-((6-chloro-2-methyl-2H-indazol-5-yl)imino)-2,6-Dioxy-3-(2,4,5-trifluorobenzyl)-1,3,5-triazin-1-yl)methyl)-1H-1,2,3-triazole-1-yl)ethoxy)ethoxy)ethoxy)-N-(2-(2,6-dioxopiperidin-3-yl)-1-oxoisoindolin-4-yl)ethyl Preparation of amides] | 100 to 1000 | < 100 | – | – | < 100
7 | Cn1cc2cc(/N=c3\[nH]c(=O)n(Cc4cn(CCOCCOCC(=O)Nc5cccc6c5C(=O)N(C5CCC(=O)NC5=O)C6=O)nn4)c(=O)n3Cc3cc(F)c(F)cc3F)c(Cl)cc2n1 (stereo not shown) [Compound 17] | – | < 100 | – | – | < 100
8 | (E)-2-(2-(4-((4-((6-chloro-2-methyl-2H-indazol-5-yl)imino)-2,6-dioxy-3-(2,4,5-Trifluorobenzyl)-1,3,5-triazin-1-yl)methyl)-1H-1,2,3-triazol-1-yl)ethoxy yl)-N-(2-(2,6-dioxopiperidin-3-yl)-1,3-dioxoisoindolin-4-yl)acetamide [Compound 16] | – | < 100 | 100 to 1000 | – | < 100
9 | (E)-4-(4-((4-((6-chloro-2-methyl-2H-indazol-5-yl)imino)-2,6-dioxy-3-(2,4,5-Trifluorobenzyl)-1,3,5-triazin-1-yl)methyl)-1H-1,2,3-triazol-1-yl)-N-(2-Preparation of (2,6-dioxopiperidin-3-yl)-1,3-dioxoisoindolin-4-yl)butanamide [Compound 8] | – | < 100 | < 100 | < 100 | < 100
10 | (E)-5-(4-((4-((6-chloro-2-methyl-2H-indazol-5-yl)imino)-2,6-dioxy-3-(2,4,5-Trifluorobenzyl)-1,3,5-triazin-1-yl)methyl)-1H-1,2,3-triazol-1-yl)-N-(2-Preparation of (2,6-dioxopiperidin-3-yl)-1,3-dioxoisoindolin-4-yl)pentanamide [Compound 9] | – | < 100 | < 100 | < 100 | < 100
11 | (E)-6-(4-((4-((6-chloro-2-methyl-2H-indazol-5-yl)imino)-2,6-dioxy-3-(2,4,5-Trifluorobenzyl)-1,3,5-triazin-1-yl)methyl)-1H-1,2,3-triazol-1-yl)-N-(2-Preparation of (2,6-dioxopiperidin-3-yl)-1,3-dioxoisoindolin-4-yl)hexanamide [Compound 10] | – | < 100 | < 100 | < 100 | < 100
12 | (E)-7-(4-((4-((6-chloro-2-methyl-2H-indazol-5-yl)imino)-2,6-dioxy-3-(2,4,5-Trifluorobenzyl)-1,3,5-triazin-1-yl)methyl)-1H-1,2,3-triazol-1-yl)-N-(2-Preparation of (2,6-Dioxypiperidin-3-yl)-1-oxoisoquinolin-4-yl)heptamide [Compound 5] | – | < 100 | 100 to 1000 | – | < 100
13 | (E)-7-(4-((4-((6-chloro-2-methyl-2H-indazol-5-yl)imino)-2,6-dioxy-3-(2,4,5-Trifluorobenzyl)-1,3,5-triazin-1-yl)methyl)-1H-1,2,3-triazol-1-yl)-N-(2-Preparation of (2,6-dioxopiperidin-3-yl)-1,3-dioxoisoindolin-4-yl)heptamide [Compound 11] | – | 100 to 1000 | 100 to 1000 | – | –
14 | (E)-8-(4-((4-((6-Chloro-2-methyl-2H-indazol-5-yl)imino)-2,6-dioxy-3-(2,4,5-Trifluorobenzyl)-1,3,5-triazin-1-yl)methyl)-1H-1,2,3-triazol-1-yl)-N-(2-Preparation of (2,6-dioxopiperidin-3-yl)-1,3-dioxoisoindolin-4-yl)octamide [Compound 12] | – | 100 to 1000 | 100 to 1000 | – | –

— patent US11530195B1, “Protacs targeting coronavirus 3CL protease and preparation method and application thereof” (SHAANXI PANLONG PHARMACEUTICAL CO., LTD., priority 2022, dated 2022)
